One compound from patent US10660910B2, “Use of sedoheptulose for prevention or treatment of inflammation” (C7 SUGAR GMBH, priority 2013, dated 2020) can be followed below.

Test [1] relates to primary human adipocytes. Put plainly: Extracellular acidification and oxygen consumption rates (XF-Analyzer) in human adipocytes. As to conditions: adipocytes differentiated and cultured in sedoheptulose containing media vs controls. Format: cell-based. How it is done: Stromal vascular fraction cells (SVFs) from subcutaneous white adipose tissue of a patient undergoing abdominal surgery were isolated as described before (Lindroos et al, Cell Metab. (2013), July 2; 18(1):62-74.). Briefly, adipose tissue was digested with Collagenase II (Worthington) and filtered. SVFs were separated from mature adipocytes by centrifugation, followed by the lysis of erythrocytes in the SVF-fraction (Buffer EL, Qiagen). The purified SVFs were cultured in DMEM/F12, 10% FBS (Gibco, Life Technologies). As soon as the cells reached confluence, they were washed with DMEM/F12 w/o glucose (Biowest) and the medium was replaced by DMEM/F12 with a total carbohydrate load of 3 g/L, containing 1.5 g/L glucose and fructose or 1 g/L each of glucose, fructose, and sedoheptulose, respectively. […]
(§1) The XF-Analyzer (Seahorse Bio.) was used to measure changes in cellular metabolism induced by different carbohydrates. Extracellular acidification rates (ECAR, mpH/min) and oxygen consumption rates (OCR, pmoles/min) were recorded in primary human adipocytes and primary murine hepatocytes according to the manufacture instructions. […] Changes induced by the different carbohydrate sources were expressed as relative change in % to illustrate the effect of each carbon source.

Test [2] has as its system WT hepatocytes. The test is described as follows: Glucose-induced ECAR in hepatocytes. Format: cell-based, mouse. As to conditions: WT hepatocytes in GFS vs GF media, 1 hr carbohydrate starvation, then glucose 1 g/L, FIG. 4E. The protocol:
Hepatocytes were isolated from male wild-type and CARKL overexpressing mice after the mice were sacrificed by hepatic in situ collagenase perfusion. After perfusion, the liver was quickly removed, minced, and filtered through a cell strainer (Fisher Scientific, Inc) into a 50 ml sterile tube. Hepatocytes in the resulting filtrate were purified from the nonparenchymal cells by centrifugation steps. The isolated hepatocytes were seeded into plates at a concentration of 0.25×10^6/ml in respective DMEM-media containing 10% FBS and indicated carbohydrate mixes at 3 g/L (glucose and fructose (GF), or glucose, fructose and sedoheptulose (GFS)) at least two days before experiments were performed.
as §1, with “instructions. Briefly, cells were seeded in seahorse cell plates at a density of 10^4 cells per well for adipocytes and 0.5×10^5 cells per well for hepatocytes.” for “instructions.”

Regarding `O=C(CO)[C@@H](O)[C@H](O)[C@H](O)[C@H](O)CO` [sedoheptulose, Sedoheptulose], in test [1] (FIG. 3D), the “cellular oxygen consumption rates (OCR)” value is reported as “increased”. Also, in test [1] (FIG. 3E), the “extracellular acidification rates (ECAR)” value is reported as “comparable”. Also, the “glucose-induced ECAR” value in test [2] is reported as “reduced”.
